Among the data in patent US20230143604A1, “QW DOSING OF GIP RECEPTOR AGONIST PEPTIDE COMPOUNDS AND USES THEREOF” (TAKEDA PHARMACEUTICAL COMPANY LIMITED, priority 2020, published 2023) are solubility values, retold here.

SMILES strings stand for the structures. Starred links: 1 amine or outer side, 2 acyl side, 3 side chain; linkers in the order of their positions; H or OH if unused. Non-standard residues stand in square brackets, D forms with d. Residues, ends and D or L forms follow the SMILES beside them. Groups on a side chain read outwards from the residue. *: point of attachment. C20 diacid = O=C(O)CCCCCCCCCCCCCCCCCCC(=O)*; C18 diacid = O=C(O)CCCCCCCCCCCCCCCCC(=O)*; γGlu = O=C(O)[C@H](CCC(=O)[*:2])N[*:1]; NMeY = CN[C@@H](Cc1ccc(O)cc1)C(=O)O; AEEA = NCCOCCOCC(=O)O; Aib = CC(C)(N)C(=O)O A value given as a limit tells only on which side of the number the result lay.

The series can be described thus: physchem. Put shortly: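 Solubility at pH 7.4 determined by stepwise addition of 200 mM phosphate buffer in 100 μL increments to 3 mg peptide, mixing briefly each time, until no insoluble material remained, then measured by liquid chromatography.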

As a reminder, the solubility is the concentration that dissolves in the medium under given conditions. A low value points to little dissolved substance. For `CC[C@H](C)[C@H](NC(=O)[C@H](CO)NC(=O)[C@H](Cc1ccc(O)cc1)NC(=O)[C@H](CC(=O)O)NC(=O)[C@H](CO)NC(=O)[C@@H](NC(=O)[C@H](Cc1ccccc1)NC(=O)[C@@H](NC(=O)CNC(=O)[C@H](CCC(=O)O)NC(=O)C(C)(C)NC(=O)[C@@H](N)Cc1ccc(O)cc1)[C@@H](C)O)[C@@H](C)CC)C(=O)N[C@@H](C)C(=O)N[C@@H](CC(C)C)C(=O)N[C@@H](CC(=O)O)C(=O)N[C@@H](CCCCN)C(=O)NC(C)(C)C(=O)N[C@@H](C)C(=O)N[C@@H](CCC(N)=O)C(=O)N[C@@H](C)C(=O)N[C@@H](CCCCNC(=O)COCCOCCNC(=O)COCCOCCNC(=O)CC[C@H](NC(=O)CC[C@H](NC(=O)CCCCCCCCCCCCCCCCC(=O)O)C(=O)O)C(=O)O)C(=O)N[C@@H](Cc1ccccc1)C(=O)N[C@H](C(=O)N[C@@H](CCC(=O)O)C(=O)N[C@@H](Cc1c[nH]c2ccccc12)C(=O)N[C@@H](CC(C)C)C(=O)N[C@@H](CC(C)C)C(=O)N[C@@H](C)C(=O)N[C@@H](CCC(N)=O)C(=O)N[C@@H](CCCNC(=N)N)C(=O)NCC(=O)O)C(C)C` [Compound 155] (H-Y[Aib]EGTFISDYSIALDK[Aib]AQAK([AEEA-AEEA-γGlu-γGlu-C18 diacid])FVEWLLAQRG-OH), the solubility by setting is: (pH 7.4) at least 15 mg/mL; (pH 7.4, aqueous buffer) at least 30 mg/mL.
Compound `CC[C@H](C)[C@H](NC(=O)[C@H](CO)NC(=O)[C@H](Cc1ccc(O)cc1)NC(=O)[C@H](CC(=O)O)NC(=O)[C@H](CO)NC(=O)[C@@H](NC(=O)[C@H](Cc1ccccc1)NC(=O)[C@@H](NC(=O)CNC(=O)[C@H](CCC(=O)O)NC(=O)C(C)(C)NC(=O)[C@@H](N)Cc1ccc(O)cc1)[C@@H](C)O)[C@@H](C)CC)C(=O)N[C@@H](C)C(=O)N[C@@H](CC(C)C)C(=O)N[C@@H](CC(=O)O)C(=O)N[C@@H](CCCCN)C(=O)NC(C)(C)C(=O)N[C@@H](C)C(=O)N[C@@H](CCC(N)=O)C(=O)N[C@@H](CCCNC(=N)N)C(=O)N[C@@H](CCCCNC(=O)COCCOCCNC(=O)COCCOCCNC(=O)CC[C@H](NC(=O)CC[C@H](NC(=O)CCCCCCCCCCCCCCCCC(=O)O)C(=O)O)C(=O)O)C(=O)N[C@@H](Cc1ccccc1)C(=O)N[C@H](C(=O)N[C@@H](CCC(=O)O)C(=O)N[C@@H](Cc1c[nH]c2ccccc12)C(=O)N[C@@H](CC(C)C)C(=O)N[C@@H](CC(C)C)C(=O)N[C@@H](C)C(=O)N[C@@H](CCC(N)=O)C(=O)N[C@@H](CCCNC(=N)N)C(=O)NCC(=O)O)C(C)C` [Compound 156] (H-Y[Aib]EGTFISDYSIALDK[Aib]AQRK([AEEA-AEEA-γGlu-γGlu-C18 diacid])FVEWLLAQRG-OH) showed a solubility (pH 7.4) of at least 15 mg/mL and a solubility (pH 7.4, aqueous buffer) of at least 30 mg/mL.
The matching figures for `CC[C@H](C)[C@H](NC(=O)[C@H](CO)NC(=O)[C@H](Cc1ccc(O)cc1)NC(=O)[C@H](CC(=O)O)NC(=O)[C@H](CO)NC(=O)[C@@H](NC(=O)[C@H](Cc1ccccc1)NC(=O)[C@@H](NC(=O)CNC(=O)[C@H](CCC(=O)O)NC(=O)C(C)(C)NC(=O)[C@@H](N)Cc1ccc(O)cc1)[C@@H](C)O)[C@@H](C)CC)C(=O)N[C@@H](C)C(=O)NC(C)(C)C(=O)N[C@@H](CC(=O)O)C(=O)N[C@@H](CCCCN)C(=O)N[C@@H](C)C(=O)N[C@@H](C)C(=O)N[C@@H](CCC(N)=O)C(=O)N[C@@H](CCC(N)=O)C(=O)N[C@@H](CCCCNC(=O)COCCOCCNC(=O)COCCOCCNC(=O)CC[C@H](NC(=O)CC[C@H](NC(=O)CCCCCCCCCCCCCCCCC(=O)O)C(=O)O)C(=O)O)C(=O)N[C@@H](Cc1ccccc1)C(=O)N[C@H](C(=O)N[C@@H](CCC(=O)O)C(=O)N[C@@H](Cc1c[nH]c2ccccc12)C(=O)N[C@@H](CC(C)C)C(=O)N[C@@H](CC(C)C)C(=O)N[C@@H](C)C(=O)N[C@@H](CCC(N)=O)C(=O)N[C@@H](CCCNC(=N)N)C(=O)NCC(=O)O)C(C)C` [Compound 157] (H-Y[Aib]EGTFISDYSIA[Aib]DKAAQQK([AEEA-AEEA-γGlu-γGlu-C18 diacid])FVEWLLAQRG-OH): at least 15 mg/mL and at least 30 mg/mL.
Consider `CC[C@H](C)[C@H](NC(=O)[C@H](CO)NC(=O)[C@H](Cc1ccc(O)cc1)NC(=O)[C@H](CC(=O)O)NC(=O)[C@H](CO)NC(=O)[C@@H](NC(=O)[C@H](Cc1ccccc1)NC(=O)[C@@H](NC(=O)CNC(=O)[C@H](CCC(=O)O)NC(=O)C(C)(C)NC(=O)[C@@H](N)Cc1ccc(O)cc1)[C@@H](C)O)[C@@H](C)CC)C(=O)N[C@@H](C)C(=O)NC(C)(C)C(=O)N[C@@H](CC(=O)O)C(=O)N[C@@H](CCCCN)C(=O)N[C@@H](C)C(=O)N[C@@H](C)C(=O)N[C@@H](CCC(N)=O)C(=O)N[C@@H](C)C(=O)N[C@@H](CCCCNC(=O)COCCOCCNC(=O)COCCOCCNC(=O)CC[C@H](NC(=O)CC[C@H](NC(=O)CCCCCCCCCCCCCCCCC(=O)O)C(=O)O)C(=O)O)C(=O)N[C@@H](Cc1ccccc1)C(=O)N[C@H](C(=O)N[C@@H](CCC(=O)O)C(=O)N[C@@H](Cc1c[nH]c2ccccc12)C(=O)N[C@@H](CC(C)C)C(=O)N[C@@H](CC(C)C)C(=O)N[C@@H](C)C(=O)N[C@@H](CCC(N)=O)C(=O)N[C@@H](CCCNC(=N)N)C(=O)NCC(=O)O)C(C)C` [Compound 158] (H-Y[Aib]EGTFISDYSIA[Aib]DKAAQAK([AEEA-AEEA-γGlu-γGlu-C18 diacid])FVEWLLAQRG-OH), for which the solubility is, setting by setting: (pH 7.4) at least 15 mg/mL; (pH 7.4, aqueous buffer) at least 30 mg/mL.
In the case of `CC[C@H](C)[C@H](NC(=O)[C@H](Cc1ccccc1)NC(=O)[C@@H](NC(=O)CNC(=O)[C@H](CCC(=O)O)NC(=O)C(C)(C)NC(=O)[C@H](Cc1ccc(O)cc1)NC)[C@@H](C)O)C(=O)N[C@@H](CO)C(=O)N[C@@H](CC(=O)O)C(=O)N[C@@H](Cc1ccc(O)cc1)C(=O)N[C@@H](CO)C(=O)N[C@H](C(=O)NC(C)(C)C(=O)N[C@@H](CC(C)C)C(=O)N[C@@H](CC(=O)O)C(=O)N[C@@H](CCCNC(=N)N)C(=O)NC(C)(C)C(=O)N[C@@H](C)C(=O)N[C@@H](CCC(N)=O)C(=O)NC(C)(C)C(=O)N[C@@H](CCCCNC(=O)COCCOCCNC(=O)COCCOCCNC(=O)CC[C@H](NC(=O)CC[C@H](NC(=O)CCCCCCCCCCCCCCCCCCC(=O)O)C(=O)O)C(=O)O)C(=O)N[C@@H](Cc1ccccc1)C(=O)N[C@H](C(=O)N[C@@H](CC(N)=O)C(=O)N[C@@H](Cc1c[nH]c2ccccc12)C(=O)N[C@@H](CC(C)C)C(=O)N[C@@H](CC(C)C)C(=O)N[C@@H](C)C(=O)N[C@@H](CCC(N)=O)C(=O)N[C@@H](CCCNC(=N)N)C(=O)NCC(=O)O)C(C)C)[C@@H](C)CC` [Compound 159] (H-[NMeY][Aib]EGTFISDYSI[Aib]LDR[Aib]AQ[Aib]K([AEEA-AEEA-γGlu-γGlu-C20 diacid])FVNWLLAQRG-OH), the solubility reads like this: (pH 7.4) at least 15 mg/mL; (pH 7.4, aqueous buffer) at least 30 mg/mL.
Regarding `CC[C@H](C)[C@H](NC(=O)[C@H](CO)NC(=O)[C@H](Cc1ccc(O)cc1)NC(=O)[C@H](CC(=O)O)NC(=O)[C@H](CO)NC(=O)[C@@H](NC(=O)[C@H](Cc1ccccc1)NC(=O)[C@@H](NC(=O)CNC(=O)[C@H](CCC(=O)O)NC(=O)C(C)(C)NC(=O)[C@@H](N)Cc1ccc(O)cc1)[C@@H](C)O)[C@@H](C)CC)C(=O)N[C@@H](C)C(=O)N[C@@H](CC(C)C)C(=O)N[C@@H](CC(=O)O)C(=O)N[C@@H](CCCCN)C(=O)N[C@H](C(=O)N[C@@H](CCCCNC(=O)COCCOCCNC(=O)COCCOCCNC(=O)CC[C@H](NC(=O)CCCCCCCCCCCCCCCCC(=O)O)C(=O)O)C(=O)N[C@@H](CCC(N)=O)C(=O)NC(C)(C)C(=O)N[C@@H](CC(=O)O)C(=O)N[C@@H](Cc1ccccc1)C(=O)N[C@H](C(=O)N[C@@H](CCC(=O)O)C(=O)N[C@@H](Cc1c[nH]c2ccccc12)C(=O)N[C@@H](CC(C)C)C(=O)N[C@@H](CC(C)C)C(=O)N[C@@H](C)C(=O)N[C@@H](CCC(N)=O)C(=O)N[C@@H](CCCNC(=N)N)C(=O)NCC(=O)O)C(C)C)[C@@H](C)CC` [Compound 160] (H-Y[Aib]EGTFISDYSIALDKIK([AEEA-AEEA-γGlu-C18 diacid])Q[Aib]DFVEWLLAQRG-OH), the solubility is, setting by setting: (pH 7.4) at least 15 mg/mL; (pH 7.4, aqueous buffer) at least 30 mg/mL.
Take `CC[C@H](C)[C@H](NC(=O)[C@H](CO)NC(=O)[C@H](Cc1ccc(O)cc1)NC(=O)[C@H](CC(=O)O)NC(=O)[C@H](CO)NC(=O)[C@@H](NC(=O)[C@H](Cc1ccccc1)NC(=O)[C@@H](NC(=O)CNC(=O)[C@H](CCC(=O)O)NC(=O)C(C)(C)NC(=O)[C@@H](N)Cc1ccc(O)cc1)[C@@H](C)O)[C@@H](C)CC)C(=O)N[C@@H](C)C(=O)N[C@@H](CC(C)C)C(=O)N[C@@H](CC(=O)O)C(=O)N[C@@H](CCCCN)C(=O)N[C@@H](C)C(=O)N[C@@H](CCCCNC(=O)COCCOCCNC(=O)COCCOCCNC(=O)CC[C@H](NC(=O)CCCCCCCCCCCCCCCCC(=O)O)C(=O)O)C(=O)N[C@@H](CCC(N)=O)C(=O)NC(C)(C)C(=O)N[C@@H](CC(=O)O)C(=O)N[C@@H](Cc1ccccc1)C(=O)N[C@H](C(=O)N[C@@H](CCC(=O)O)C(=O)N[C@@H](Cc1c[nH]c2ccccc12)C(=O)N[C@@H](CC(C)C)C(=O)N[C@@H](CC(C)C)C(=O)N[C@@H](C)C(=O)N[C@@H](CCC(N)=O)C(=O)N[C@@H](CCCNC(=N)N)C(=O)NCC(=O)O)C(C)C` [Compound 161] (H-Y[Aib]EGTFISDYSIALDKAK([AEEA-AEEA-γGlu-C18 diacid])Q[Aib]DFVEWLLAQRG-OH): the solubility reads like this: (pH 7.4) at least 15 mg/mL; (pH 7.4, aqueous buffer) at least 30 mg/mL.
The matching figures for `CC[C@H](C)[C@H](NC(=O)[C@H](CO)NC(=O)[C@H](Cc1ccc(O)cc1)NC(=O)[C@H](CC(=O)O)NC(=O)[C@H](CO)NC(=O)[C@@H](NC(=O)[C@H](Cc1ccccc1)NC(=O)[C@@H](NC(=O)CNC(=O)[C@H](CCC(=O)O)NC(=O)C(C)(C)NC(=O)[C@@H](N)Cc1ccc(O)cc1)[C@@H](C)O)[C@@H](C)CC)C(=O)N[C@@H](C)C(=O)N[C@@H](CC(C)C)C(=O)N[C@@H](CC(=O)O)C(=O)N[C@@H](CCCCN)C(=O)NC(C)(C)C(=O)N[C@@H](CCCCNC(=O)COCCOCCNC(=O)COCCOCCNC(=O)CC[C@H](NC(=O)CCCCCCCCCCCCCCCCC(=O)O)C(=O)O)C(=O)N[C@@H](CCC(N)=O)C(=O)N[C@@H](C)C(=O)N[C@@H](CC(=O)O)C(=O)N[C@@H](Cc1ccccc1)C(=O)N[C@H](C(=O)N[C@@H](CCC(=O)O)C(=O)N[C@@H](Cc1c[nH]c2ccccc12)C(=O)N[C@@H](CC(C)C)C(=O)N[C@@H](CC(C)C)C(=O)N[C@@H](C)C(=O)N[C@@H](CCC(N)=O)C(=O)N[C@@H](CCCNC(=N)N)C(=O)NCC(=O)O)C(C)C` [Compound 162] (H-Y[Aib]EGTFISDYSIALDK[Aib]K([AEEA-AEEA-γGlu-C18 diacid])QADFVEWLLAQRG-OH): at least 15 mg/mL and at least 30 mg/mL.
